Measurements published in PubChem BioAssay (NCI).
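Cultured in 96-well plates, cells were exposed to test compound for 48 hours across five concentrations. Definition used: TGI = concentration required for complete inhibition of growth.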

How the values were obtained:
Assay in all cases: DTP human tumour cell line panel, 48 h
786-0 renal = tested on: 786-0 renal
A498 renal = tested on: A498 renal
A549 NSCLC = tested on: A549 NSCLC
ACHN renal = tested on: ACHN renal
BT-549 breast = tested on: BT-549 breast
CAKI-1 renal = tested on: CAKI-1 renal
CCRF-CEM leukemia = tested on: CCRF-CEM leukemia
COLO 205 colon = tested on: COLO 205 colon
DLD-1 colon = tested on: DLD-1 colon
DMS 114 small cell lung = tested on: DMS 114 small cell lung
DMS 273 small cell lung = tested on: DMS 273 small cell lung
DU-145 prostate = tested on: DU-145 prostate
EKVX NSCLC = tested on: EKVX NSCLC
HCC-2998 colon = tested on: HCC-2998 colon
HCT-116 colon = tested on: HCT-116 colon
HCT-15 colon = tested on: HCT-15 colon
HL-60(TB) leukemia = tested on: HL-60(TB) leukemia
HOP-18 NSCLC = tested on: HOP-18 NSCLC
HOP-62 NSCLC = tested on: HOP-62 NSCLC
HOP-92 NSCLC = tested on: HOP-92 NSCLC
HS 578T breast = tested on: HS 578T breast
HT29 colon = tested on: HT29 colon
IGROV1 ovarian = tested on: IGROV1 ovarian
K-562 leukemia = tested on: K-562 leukemia
KM12 colon = tested on: KM12 colon
KM20L2 colon = tested on: KM20L2 colon
LOX IMVI melanoma = tested on: LOX IMVI melanoma
M14 melanoma = tested on: M14 melanoma
M19-MEL melanoma = tested on: M19-MEL melanoma
MALME-3M melanoma = tested on: MALME-3M melanoma
MCF7 breast = tested on: MCF7 breast
MDA-MB-231 breast = tested on: MDA-MB-231 breast
MDA-N = tested on: MDA-N
MOLT-4 leukemia = tested on: MOLT-4 leukemia
NCI-H226 lung = tested on: NCI-H226 lung
NCI-H23 lung = tested on: NCI-H23 lung
NCI-H460 lung = tested on: NCI-H460 lung
NCI-H522 lung = tested on: NCI-H522 lung
NCI/ADR-RES ovarian = tested on: NCI/ADR-RES ovarian
OVCAR-3 ovarian = tested on: OVCAR-3 ovarian
OVCAR-4 ovarian = tested on: OVCAR-4 ovarian
OVCAR-5 ovarian = tested on: OVCAR-5 ovarian
OVCAR-8 ovarian = tested on: OVCAR-8 ovarian
PC-3 prostate = tested on: PC-3 prostate
RPMI-8226 leukemia = tested on: RPMI-8226 leukemia
RXF 393 renal = tested on: RXF 393 renal
SF-268 CNS = tested on: SF-268 CNS
SF-295 CNS = tested on: SF-295 CNS
SF-539 CNS = tested on: SF-539 CNS
SK-MEL-2 melanoma = tested on: SK-MEL-2 melanoma
SK-MEL-28 melanoma = tested on: SK-MEL-28 melanoma
SK-MEL-5 melanoma = tested on: SK-MEL-5 melanoma
SK-OV-3 ovarian = tested on: SK-OV-3 ovarian
SN12C renal = tested on: SN12C renal
SNB-19 CNS = tested on: SNB-19 CNS
SNB-75 CNS = tested on: SNB-75 CNS
SNB-78 CNS = tested on: SNB-78 CNS
SR leukemia = tested on: SR leukemia
SW-620 colon = tested on: SW-620 colon
T-47D breast = tested on: T-47D breast
TK-10 renal = tested on: TK-10 renal
U251 CNS = tested on: U251 CNS
UACC-257 melanoma = tested on: UACC-257 melanoma
UO-31 renal = tested on: UO-31 renal
XF 498 CNS = tested on: XF 498 CNS
LXFL 529 NSCLC = tested on: LXFL 529 NSCLC
UACC-62 melanoma = tested on: UACC-62 melanoma
RXF-631 renal = tested on: RXF-631 renal

Structure (SMILES): Cc1cc(N(CCC#N)CCC#N)ccc1/C=C1N=C(/C=C\c2ccccc2)N(c2ccc(Cl)cc2)C\1=O
- TGI (786-0 renal): > 100 µM
- TGI (A498 renal): > 100 µM
- TGI (A549 NSCLC): > 100 µM
- TGI (ACHN renal): > 100 µM
- TGI (BT-549 breast): > 100 µM
- TGI (CAKI-1 renal): > 100 µM
- TGI (CCRF-CEM leukemia): > 100 µM
- TGI (COLO 205 colon): 5.06 µM
- TGI (DLD-1 colon): > 100 µM
- TGI (DMS 114 small cell lung): > 100 µM
- TGI (DMS 273 small cell lung): > 100 µM
- TGI (DU-145 prostate): > 100 µM
- TGI (EKVX NSCLC): > 100 µM
- TGI (HCC-2998 colon): > 100 µM
- TGI (HCT-116 colon): > 100 µM
- TGI (HCT-15 colon): > 100 µM
- TGI (HL-60(TB) leukemia): > 100 µM
- TGI (HOP-18 NSCLC): > 100 µM
- TGI (HOP-62 NSCLC): > 63.5 µM
- TGI (HOP-92 NSCLC): > 100 µM
- TGI (HS 578T breast): > 100 µM
- TGI (HT29 colon): > 100 µM
- TGI (IGROV1 ovarian): > 100 µM
- TGI (K-562 leukemia): > 100 µM
- TGI (KM12 colon): > 100 µM
- TGI (KM20L2 colon): > 31.9 µM
- TGI (LOX IMVI melanoma): > 100 µM
- TGI (M14 melanoma): > 48.2 µM
- TGI (M19-MEL melanoma): > 82.7 µM
- TGI (MALME-3M melanoma): > 72 µM
- TGI (MCF7 breast): > 100 µM
- TGI (MDA-MB-231 breast): > 100 µM
- TGI (MDA-N): > 100 µM
- TGI (MOLT-4 leukemia): > 100 µM
- TGI (NCI-H226 lung): > 100 µM
- TGI (NCI-H23 lung): > 100 µM
- TGI (NCI-H460 lung): > 100 µM
- TGI (NCI-H522 lung): > 100 µM
- TGI (NCI/ADR-RES ovarian): > 100 µM
- TGI (OVCAR-3 ovarian): > 100 µM
- TGI (OVCAR-4 ovarian): > 100 µM
- TGI (OVCAR-5 ovarian): > 100 µM
- TGI (OVCAR-8 ovarian): > 100 µM
- TGI (PC-3 prostate): > 100 µM
- TGI (RPMI-8226 leukemia): > 100 µM
- TGI (RXF 393 renal): > 100 µM
- TGI (SF-268 CNS): > 100 µM
- TGI (SF-295 CNS): > 100 µM
- TGI (SF-539 CNS): > 100 µM
- TGI (SK-MEL-2 melanoma): > 100 µM
- TGI (SK-MEL-28 melanoma): > 100 µM
- TGI (SK-MEL-5 melanoma): 17.5 µM
- TGI (SK-OV-3 ovarian): > 100 µM
- TGI (SN12C renal): > 100 µM
- TGI (SNB-19 CNS): > 100 µM
- TGI (SNB-75 CNS): > 100 µM
- TGI (SNB-78 CNS): > 100 µM
- TGI (SR leukemia): > 100 µM
- TGI (SW-620 colon): > 100 µM
- TGI (T-47D breast): > 100 µM
- TGI (TK-10 renal): > 100 µM
- TGI (U251 CNS): > 100 µM
- TGI (UACC-257 melanoma): > 100 µM
- TGI (UO-31 renal): > 53.9 µM
- TGI (XF 498 CNS): > 100 µM

Structure (SMILES): COc1ccc(C=O)c(NC(=O)C(C)C)c1
- TGI (786-0 renal): > 100 µM
- TGI (A498 renal): > 100 µM
- TGI (A549 NSCLC): > 100 µM
- TGI (ACHN renal): > 100 µM
- TGI (CCRF-CEM leukemia): > 10 µM
- TGI (COLO 205 colon): 34.1 µM
- TGI (DMS 114 small cell lung): 88.7 µM
- TGI (DMS 273 small cell lung): > 100 µM
- TGI (EKVX NSCLC): > 100 µM
- TGI (HCT-116 colon): 31.2 µM
- TGI (HCT-15 colon): > 100 µM
- TGI (HOP-18 NSCLC): 90.6 µM
- TGI (HOP-92 NSCLC): 53.5 µM
- TGI (HT29 colon): > 100 µM
- TGI (IGROV1 ovarian): > 100 µM
- TGI (K-562 leukemia): > 100 µM
- TGI (KM12 colon): > 10 µM
- TGI (KM20L2 colon): > 100 µM
- TGI (LOX IMVI melanoma): > 100 µM
- TGI (LXFL 529 NSCLC): > 100 µM
- TGI (M14 melanoma): > 100 µM
- TGI (M19-MEL melanoma): 49.5 µM
- TGI (MALME-3M melanoma): 94.4 µM
- TGI (MOLT-4 leukemia): 74.7 µM
- TGI (NCI-H226 lung): > 10 µM
- TGI (NCI-H23 lung): > 100 µM
- TGI (NCI-H460 lung): > 100 µM
- TGI (NCI-H522 lung): 46.3 µM
- TGI (OVCAR-3 ovarian): > 100 µM
- TGI (OVCAR-4 ovarian): > 100 µM
- TGI (OVCAR-5 ovarian): > 100 µM
- TGI (OVCAR-8 ovarian): > 100 µM
- TGI (RPMI-8226 leukemia): 66.3 µM
- TGI (RXF 393 renal): 64.5 µM
- TGI (SF-268 CNS): > 100 µM
- TGI (SF-295 CNS): > 100 µM
- TGI (SF-539 CNS): > 100 µM
- TGI (SK-MEL-2 melanoma): > 100 µM
- TGI (SK-MEL-28 melanoma): > 100 µM
- TGI (SK-MEL-5 melanoma): > 10 µM
- TGI (SK-OV-3 ovarian): > 100 µM
- TGI (SN12C renal): 57.6 µM
- TGI (SNB-19 CNS): > 100 µM
- TGI (SNB-75 CNS): > 100 µM
- TGI (SNB-78 CNS): > 100 µM
- TGI (SW-620 colon): > 10 µM
- TGI (TK-10 renal): > 100 µM
- TGI (U251 CNS): > 100 µM
- TGI (UACC-257 melanoma): > 100 µM
- TGI (UACC-62 melanoma): > 100 µM
- TGI (UO-31 renal): 82.6 µM
- TGI (XF 498 CNS): 68.9 µM

Structure (SMILES): Fc1cccc(C2SCc3nc4ccccc4n32)c1F (centres undefined)
- TGI (786-0 renal): > 100 µM
- TGI (A498 renal): > 100 µM
- TGI (A549 NSCLC): > 100 µM
- TGI (ACHN renal): > 100 µM
- TGI (CAKI-1 renal): > 100 µM
- TGI (CCRF-CEM leukemia): > 100 µM
- TGI (COLO 205 colon): > 100 µM
- TGI (DLD-1 colon): > 100 µM
- TGI (DMS 114 small cell lung): > 100 µM
- TGI (DMS 273 small cell lung): 50.5 µM
- TGI (EKVX NSCLC): > 100 µM
- TGI (HCC-2998 colon): > 100 µM
- TGI (HCT-116 colon): > 100 µM
- TGI (HCT-15 colon): > 100 µM
- TGI (HL-60(TB) leukemia): 46.9 µM
- TGI (HOP-18 NSCLC): > 100 µM
- TGI (HOP-62 NSCLC): > 100 µM
- TGI (HOP-92 NSCLC): 85 µM
- TGI (HT29 colon): > 100 µM
- TGI (IGROV1 ovarian): > 100 µM
- TGI (K-562 leukemia): > 100 µM
- TGI (KM12 colon): > 100 µM
- TGI (KM20L2 colon): > 100 µM
- TGI (LOX IMVI melanoma): > 100 µM
- TGI (LXFL 529 NSCLC): > 100 µM
- TGI (M14 melanoma): > 100 µM
- TGI (M19-MEL melanoma): > 100 µM
- TGI (MALME-3M melanoma): > 100 µM
- TGI (MOLT-4 leukemia): 68.5 µM
- TGI (NCI-H226 lung): > 100 µM
- TGI (NCI-H23 lung): > 100 µM
- TGI (NCI-H460 lung): > 100 µM
- TGI (NCI-H522 lung): > 100 µM
- TGI (OVCAR-3 ovarian): > 100 µM
- TGI (OVCAR-4 ovarian): > 100 µM
- TGI (OVCAR-5 ovarian): > 100 µM
- TGI (OVCAR-8 ovarian): > 100 µM
- TGI (RPMI-8226 leukemia): > 100 µM
- TGI (RXF 393 renal): > 100 µM
- TGI (RXF-631 renal): 36 µM
- TGI (SF-268 CNS): > 100 µM
- TGI (SF-295 CNS): > 100 µM
- TGI (SF-539 CNS): > 100 µM
- TGI (SK-MEL-2 melanoma): 76.4 µM
- TGI (SK-MEL-5 melanoma): 53.2 µM
- TGI (SK-OV-3 ovarian): > 100 µM
- TGI (SN12C renal): > 100 µM
- TGI (SNB-19 CNS): > 100 µM
- TGI (SNB-75 CNS): > 100 µM
- TGI (SNB-78 CNS): > 100 µM
- TGI (SR leukemia): > 100 µM
- TGI (SW-620 colon): > 100 µM
- TGI (TK-10 renal): > 100 µM
- TGI (U251 CNS): > 100 µM
- TGI (UACC-257 melanoma): > 100 µM
- TGI (UACC-62 melanoma): > 100 µM
- TGI (UO-31 renal): > 100 µM
